Data from ChEMBL document CHEMBL3714716, “Modulators of the relaxin receptor 1” (2015).
Activity calls are given as the source filed them. The calls are words filed in the database; no cut-off is given here.

Assays:
Relaxin receptor 1 = target: T1, Relaxin receptor 1 (Homo sapiens, UniProt Q9HBX9); test: Agonist activity at RXFP1 receptor (unknown origin) expressed in HEK293 cells assessed as stimulation of cAMP production incubated for 30 mins by TR-FRET based HTRF assay; type: functional, cell-based
T1 sequence (Q9HBX9 whole entry): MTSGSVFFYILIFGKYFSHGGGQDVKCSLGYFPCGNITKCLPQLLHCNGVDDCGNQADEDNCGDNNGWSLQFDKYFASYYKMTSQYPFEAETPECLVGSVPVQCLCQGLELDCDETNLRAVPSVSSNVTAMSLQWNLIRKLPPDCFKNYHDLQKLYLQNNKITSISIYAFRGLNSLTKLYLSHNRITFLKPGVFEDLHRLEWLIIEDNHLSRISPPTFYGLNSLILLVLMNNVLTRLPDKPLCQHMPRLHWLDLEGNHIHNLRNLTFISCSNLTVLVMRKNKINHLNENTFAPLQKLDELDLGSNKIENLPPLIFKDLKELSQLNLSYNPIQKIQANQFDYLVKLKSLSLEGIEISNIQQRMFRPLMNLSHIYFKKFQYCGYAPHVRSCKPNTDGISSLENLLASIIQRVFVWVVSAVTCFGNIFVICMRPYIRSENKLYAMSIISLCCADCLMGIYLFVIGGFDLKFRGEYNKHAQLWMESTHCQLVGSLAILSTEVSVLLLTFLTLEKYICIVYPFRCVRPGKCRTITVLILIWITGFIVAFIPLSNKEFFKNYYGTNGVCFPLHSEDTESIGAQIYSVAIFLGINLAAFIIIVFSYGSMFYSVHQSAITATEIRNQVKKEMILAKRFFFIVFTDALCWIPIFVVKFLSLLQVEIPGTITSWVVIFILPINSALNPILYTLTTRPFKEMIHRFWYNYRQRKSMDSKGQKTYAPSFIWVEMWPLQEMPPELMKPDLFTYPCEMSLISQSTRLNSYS

[1] = target: T2, Relaxin receptor 1 (Homo sapiens) (UniProt Q9HBX9); test: Agonist activity at RXFP1 receptor (unknown origin) expressed in HEK293 cells assessed as stimulation of cAMP production incubated for 30 mins by TR-FRET based HTRF assay relative to forskolin; type: functional, cell-based
T2 sequence (whole entry): T1 sequence (Q9HBX9 whole entry)

Compound | AC50 (Relaxin receptor 1; read-out: AC50) | %max [1] | AC50 (Relaxin receptor 1; hek293)
CCC(CC)C(=O)Nc1ccccc1C(=O)Nc1cccc(C(F)(F)F)c1 | 5.29 µM | 59% | 
O=C(Nc1cccc(C(F)(F)F)c1)c1ccccc1NC(=O)C12CC3CC(CC(C3)C1)C2 | 4.71 µM | 87% | 
CCOc1ccccc1C(=O)Nc1ccccc1-c1nc2cc(C(F)(F)F)ccc2[nH]1 | 149 µM | 31% | 
O=C(Nc1cccc(C(F)(F)F)c1)c1ccc(NC(=O)C2CCCCC2)cc1 |  | inactive | Not Active
O=C(Nc1cccc(C(F)(F)F)c1)c1ccccc1NC(=O)C1CCCCCC1 | 2.11 µM | 75% | 
COc1ccccc1C(=O)Nc1ccccc1C(=O)Nc1cccc(S(C)(=O)=O)c1 | 6.66 µM | 95% | 
O=C(Nc1cccc(-c2ccccc2C(F)(F)F)c1)c1ccccc1NC(=O)C1CCCCC1 | 2.65 µM | 74% | 
O=C(Nc1cc(C(F)(F)F)ccc1F)c1ccccc1NC(=O)C1CCCCC1 |  | inactive | Not Active
O=C(Nc1cccc(C(F)(F)F)c1)c1ccccc1NC(=O)c1ccccc1OCCN1CCCCC1 | 2.65 µM | 99% | 
CC1CCC(C(=O)Nc2ccccc2C(=O)Nc2cccc(C(F)(F)F)c2)CC1 (configuration not stated) | 2.36 µM | 92% | 
CCOc1ccccc1C(=O)Nc1cnccc1C(=O)Nc1cccc(S(=O)(=O)C(F)(F)F)c1 | 2.97 µM | 99% | 
COCCOc1ccccc1C(=O)Nc1cccc(C(F)(F)F)c1 |  | inactive | Not Active
O=C(Nc1cccc(C(F)(F)F)c1)c1ccccc1OCCN1CCNCC1 |  | inactive | Not Active
COc1ccc(NC(=O)c2ccccc2NC(=O)C2CCCCC2)cc1 |  | inactive | Not Active
CCOc1ccccc1-c1nc2ccccc2c(=O)n1-c1cccc(-c2nnn[nH]2)c1 | 149 µM | 36% | 
O=C(Nc1ccc(C(F)(F)F)cc1)c1ccccc1NC(=O)C1CCCCC1 | 94 µM | 46% | 
O=C(Nc1cccc(C(F)(F)F)c1)c1ccccc1OCCN1CCOCC1 |  | inactive | Not Active
O=C(NCc1ccc(C(F)(F)F)cc1)c1ccccc1NC(=O)C1CCCCC1 |  | inactive | Not Active
O=C(Nc1cccc(N2CCCCC2)c1)c1ccccc1NC(=O)C1CCCCC1 |  | inactive | Not Active

Compound | AC50 (Relaxin receptor 1; read-out: AC50) | %max [1] | AC50 (Relaxin receptor 1; hek293)
O=C(NCc1cccs1)c1ccccc1NC(=O)C1CCCCC1 | 118 µM | 40% | 
CC(C)(C)OC(=O)N1CCN(CCOc2ccccc2C(=O)Nc2cccc(C(F)(F)F)c2)CC1 |  | inactive | Not Active
Cc1ccc(CNC(=O)c2ccccc2NC(=O)C2CCCCC2)o1 | 149 µM | 31% | 
COc1ccccc1C(=O)Nc1ccccc1C(=O)Nc1cccc(SC)c1 | 1.33 µM | 94% | 
CCOc1ccccc1C(=O)Nc1ccccc1C(=O)Nc1ccccn1 | 29.7 µM | 74% | 
O=C(NCc1ccco1)c1ccccc1NC(=O)c1ccccc1NC(=O)C1CCCCC1 | 9.4 µM | 45% | 
O=C(Nc1cccc(F)c1)c1ccccc1NC(=O)C1CCCCC1 | 13.3 µM | 81% | 
O=C(Nc1cccc(Br)c1)c1ccccc1NC(=O)C1CCCCC1 | 2.65 µM | 91% | 
CCOc1ccccc1C(=O)Nc1ccccc1C(=O)Nc1cccc(C#N)c1 | 0.666 µM | 96% | 
O=C(Nc1ccc(Br)cc1)c1ccccc1NC(=O)C1CCCCC1 | 118 µM | 50% | 
O=C(Nc1ccccc1[N+](=O)[O-])c1ccccc1NC(=O)C1CCCCC1 |  | inactive | Not Active
O=C(Nc1cccc([N+](=O)[O-])c1)c1ccccc1NC(=O)C1CCCCC1 | 5.93 µM | 93% | 
CN(C)CCCOc1ccccc1C(=O)Nc1cccc(C(F)(F)F)c1 |  | inactive | Not Active
CCOc1ccccc1C(=O)Nc1ccccc1C(=O)Nc1cccc(SC(F)(F)F)c1 | 0.666 µM | 98% | 
CCOc1ccccc1C(=O)Nc1ccccc1C(=O)Nc1cccc(-c2nnn[nH]2)c1 |  | inactive | Not Active
COc1ccccc1C(=O)N(C)c1ccccc1C(=O)N(C)c1cccc(C(F)(F)F)c1 |  | inactive | Not Active
O=C(Nc1cccc(SC(F)(F)F)c1)c1ccccc1NC(=O)C1CCCCC1 | 1.88 µM | 90% | 
COc1ccccc1C(=O)Nc1ccccc1C(=O)Nc1cccc(N2CCCCC2)c1 | 5.29 µM | 77% | 

Next, values leading:

AC50 (Relaxin receptor 1; read-out: AC50) | %max [1] | AC50 (Relaxin receptor 1; hek293) | Compound
4.2 µM | 93% |  | O=C(Nc1cccc(C(F)(F)F)c1)c1ccccc1Nc1cccc(C(F)(F)F)c1
 | inactive | Not Active | COc1ccccc1C(=O)Nc1ccc(C(=O)Nc2cccc(C(F)(F)F)c2)cc1
0.471 µM | 99% |  | CC(C)Oc1ccccc1C(=O)Nc1ccccc1C(=O)Nc1cccc(C(F)(F)F)c1
7.47 µM | 78% |  | O=C(Nc1ccccc1C(=O)Nc1cccc(C(F)(F)F)c1)c1ccccc1Br
2.36 µM | 88% |  | O=C(Nc1cccc(C(F)(F)F)c1)c1ccccc1NC(=O)C1CCCC1
8.38 µM | 79% |  | O=C(Nc1cccc(C(F)(F)F)c1)c1ccccc1NC(=O)C1CC1
5.93 µM | 71% |  | CC(=O)c1ccc(C(=O)Nc2ccccc2C(=O)Nc2cccc(C(F)(F)F)c2)cc1
47.1 µM | 71% |  | O=C(Nc1cccc(C(F)(F)F)c1)c1ccccc1NCc1cccc(C(F)(F)F)c1
1.06 µM | 84% |  | O=C(Nc1ccccc1C(=O)Nc1cccc(C(F)(F)F)c1)c1cccc([N+](=O)[O-])c1
0.747 µM | 97% |  | O=C(Nc1cccc(C(F)(F)F)c1)c1ccccc1NC(=O)c1ccccc1Oc1ccccc1
2.65 µM | 95% |  | O=C(Nc1ccccc1C(=O)Nc1cccc(C(F)(F)F)c1)c1ccc(Cl)cc1
1.32 µM | 64% |  | O=C(Nc1ccccc1C(=O)Nc1cccc(C(F)(F)F)c1)c1ccccc1
3.74 µM | 92% |  | O=C(Nc1ccccc1C(=O)Nc1cccc(C(F)(F)F)c1)c1ccccc1Cl
2.97 µM | 95% |  | O=C(Nc1ccccc1C(=O)Nc1cccc(C(F)(F)F)c1)c1cccc(C(F)(F)F)c1
3.74 µM | 92% |  | CNCCOc1ccccc1C(=O)Nc1ccccc1C(=O)Nc1cccc(C(F)(F)F)c1
9.4 µM | 83% |  | O=C(Nc1cccc(C(F)(F)F)c1)c1ccccc1NCCc1ccccc1
1.88 µM | 94% |  | COc1cccc(C(=O)Nc2ccccc2C(=O)Nc2cccc(C(F)(F)F)c2)c1

AC50 (Relaxin receptor 1; read-out: AC50) | %max [1] | AC50 (Relaxin receptor 1; hek293) | Compound
3.74 µM | 92% |  | Cc1cccc(C(=O)Nc2ccccc2C(=O)Nc2cccc(C(F)(F)F)c2)c1
7.47 µM | 70% |  | O=C(Nc1cccc(C(F)(F)F)c1)c1ccccc1NC(=O)c1ccccc1C(F)(F)F
59.3 µM | 66% |  | CN(C)CCCOc1ccccc1C(=O)Nc1ccccc1C(=O)Nc1cccc(C(F)(F)F)c1
0.747 µM | 98% |  | COCCOc1ccccc1C(=O)Nc1ccccc1C(=O)Nc1cccc(C(F)(F)F)c1
4.2 µM | 90% |  | Cc1ccccc1C(=O)Nc1ccccc1C(=O)Nc1cccc(C(F)(F)F)c1
5.29 µM | 79% |  | CC(C)(C)OC(=O)Nc1ccccc1C(=O)Nc1cccc(C(F)(F)F)c1
8.38 µM | 86% |  | O=C(Cc1ccccc1)Nc1ccccc1C(=O)Nc1cccc(C(F)(F)F)c1
47.1 µM | 78% |  | O=CNc1ccccc1C(=O)Nc1cccc(C(F)(F)F)c1
2.36 µM | 81% |  | O=C(Nc1ccccc1C(=O)Nc1cccc(C(F)(F)F)c1)c1ccco1
0.334 µM | 99% |  | COc1ccccc1C(=O)Nc1ccccc1C(=O)Nc1cccc(C(F)(F)F)c1
9.4 µM | 77% |  | CS(=O)(=O)c1cccc(C(=O)Nc2ccccc2C(=O)Nc2cccc(C(F)(F)F)c2)c1
5.93 µM | 93% |  | O=C(Nc1ccccc1C(=O)Nc1cccc(C(F)(F)F)c1)c1ccc(C(F)(F)F)cc1
4.2 µM | 94% |  | O=C(Nc1ccccc1C(=O)Nc1cccc(C(F)(F)F)c1)c1cc(C(F)(F)F)cc(C(F)(F)F)c1
47.1 µM | 69% |  | O=C(Nc1cccc(C(F)(F)F)c1)c1ccccc1NCc1ccccc1
5.29 µM | 89% |  | O=C(Nc1ccccc1C(=O)Nc1cccc(C(F)(F)F)c1)c1cccc(-c2ccccc2)c1
2.1 µM | 96% |  | N#Cc1cccc(C(=O)Nc2ccccc2C(=O)Nc2cccc(C(F)(F)F)c2)c1
2.97 µM | 75% |  | O=C(Nc1cccc(C(F)(F)F)c1)c1ccccc1NC(=O)C1CCC1
